Consider 91 molecules from a melting point compilation (Tetko et al.; mined from patent text by program, amines drawn as free bases though some values may be those of a salt).

For orientation: melting point means the temperature, or range, at which the solid turns liquid.

`COc1ccc(C2SCCCS2)cc1` yielded a melting point of 117 to 119 °C.
For `O=C(O)CCCCc1cc(O)c(O)c([N+](=O)[O-])c1` the value was 135 to 138 °C; for `O=C1/C(=C/c2cccs2)CNc2cc(OCCn3ccnc3)ccc21`, 211 to 213 °C; for `COc1cc(C)nc(C#N)n1`, 80 to 85 °C.
For `CCn1nc(C)c(N)c1C` the value was 69 to 70 °C; for `S=c1nc(-c2ccc(Br)cc2)[nH]n1Cc1ccccc1`, 250 to 251 °C; for `COC(=O)c1ccc(OCc2cccc(OCc3ccc4ccccc4n3)c2)c(OC)c1`, 100 to 101 °C.
For the molecule `Cc1ccc(N)cc1Nc1cc(-c2cccnc2)ccn1`, the melting point fell in the range of 183 to 186 °C.
Under `COC(=O)C1CC=C(c2c(-c3ccccc3)[nH]c3ccccc23)CC1` (stereo unspecified) stands 175 to 177 °C.
Under `O=C(Cc1cccc(O)c1)NNC(=O)c1c(OCc2ccccc2)cc(OCc2ccccc2)cc1OCc1ccccc1` stands 154 to 155 °C; under `C(#Cc1cnc2ccccc2c1)CCN1CC=C(c2ccccc2)CC1`, 94.3 to 95.8 °C; under `COC1CC(NC(C)=O)C(OC(=O)c2ccccc2)C(CBr)O1` (stereo unspecified), 173 °C.
For `c1ccc(CCN2CCC(CCc3cc(-c4ccccc4)nc4ccccc34)CC2)cc1` the value was 80 °C.
For the molecule `O=C(O)C(CC=Cc1ccccc1)Cc1cccc2ccccc12` (stereo unspecified), the melting point lay within 135 to 137 °C.
Under `CCOC(=O)c1cnoc1-c1ccc(Br)cc1` stands 47 to 48 °C; under `CC(C)(C)OC(=O)N1CCN(CCC(N)=O)CC1`, 96 to 98 °C.
For `CN(C)CCn1c2ccc(O)cc2c2c3c(c(-c4ccccc4)cc21)C(=O)NC3=O` the value was 283 to 286 °C; for `NS(=O)(=O)c1cc(C(=O)O)cc(NCc2ccc3c(c2)OCO3)c1Oc1ccccc1`, 229 to 230 °C; for `Cc1ccccc1C=CC(=O)OCCc1ccccc1`, 52 to 53 °C.
`C=CCn1nc(CCCC)c(Cc2ccc(-c3ccccc3-c3nnn[nH]3)cc2)c1COC` gave a melting point of 39 to 41 °C.
Under `CCCCCC(C(=O)c1ccccc1)C(=O)c1ccccc1` stands 68.5 to 69.5 °C.
For `Cc1noc(NC(=O)N2CCN(c3nccc(-c4cc(F)ccc4F)n3)CC2)c1C` the value was 218 to 219 °C.
Under `ON=C1C2CCN(CC2)C1CN1CCCC1` (stereo unspecified) stands 194 to 195 °C; under `CCCCOc1nc(N)c2[nH]c(=O)n(CCCCN(CCN3CCOCC3)Cc3cccc(CC(=O)OC)c3)c2n1`, 189 to 190 °C.
In the case of `CC(=O)Oc1ccc2cccc(OCC(=O)c3ccccc3)c2n1`, the melting point was in the range of 141 to 142 °C.
For `O=C(O)CNC(=O)NCCCCC1CCSS1` (stereo unspecified) the value was 95 to 96 °C; for `OCC1N=c2c(ccc3c2=CC=N3)O1` (stereo unspecified), 169 to 172 °C; for `CCCCCCCC(=O)CCCCCC(=O)N[C@@H](C)C(=O)OC`, 61 to 64 °C.
For `NS(=O)(=O)c1ccc(-c2noc(-c3cnn4ccc(-c5ccc(C(F)(F)F)cc5)nc34)n2)s1` the value was 251 °C.
In turn, `COC(=O)C(Cc1ccccc1)Cc1ccc(OCCn2c(=O)sc3cc(C(=O)c4ccccc4)ccc32)cc1` (stereo unspecified) came in with a melting point of 65 to 67 °C.
As to `CCOC(=O)C(=CNc1cccc(-c2ccncc2)c1)C(C)=O`, the melting point was 107 to 108 °C.
Under `CCCCCCCCCCCCCCCCc1ccccc1O` stands 54 to 55 °C; under `CCCc1nc2c(N)nc3cc(O)ccc3c2n1CC(C)C`, over 265 °C; under `CN1CCN(c2ccc(O)c3c2C[C@H](N)CC3)CC1`, 238 to 239 °C.
Under `CN1C=NN(c2cccc(N)c2)N1` stands 93 to 95 °C.
In turn, `O=[N+]([O-])c1ccc(OCc2ccc(Cl)cc2)cc1F` displayed a melting point of 86 to 88 °C.
The molecule `CCOCC1=C(C(=O)OCC)C(c2cccc([N+](=O)[O-])c2)C(C(=O)OCC)=C(C)N1` (stereo unspecified) yielded a melting point of 120 to 122 °C.
Under `CC12CCCc3cc(C(=O)O)cc(c31)CCC2` stands 213 to 215 °C; under `Cn1c2c(ccc1=O)C(NCCc1ccc(Cl)cc1Cl)CCC2` (stereo unspecified), 102 to 103 °C; under `COc1ccccc1C(c1cccc2ccccc12)C(C)(C#N)C#N` (stereo unspecified), 175 to 177 °C.
Under `CCCC(CCC)n1nnc2c(Cl)nc(C)cc21` stands 90 to 91 °C; under `O=C(O)c1ccc(CN(C2CCCCC2O)S(=O)(=O)c2ccc(Cl)cc2)cc1` (stereo unspecified), 218 to 219 °C.
For `Cn1c2c(c3cc(O)ccc31)CC(CO)C2` (stereo unspecified) the value was 153 to 154 °C.
The molecule `CN1CCC(OC2c3ccccc3CCn3c2nc(-c2ccccc2)c3I)CC1` (stereo unspecified) returned a melting point of 153 °C.
On to `CC(C)(Cn1c(CO)nc2c(N)nc3ccccc3c21)CS(C)(=O)=O`, for which the melting point is 230 to 232 °C.
As for `Cc1ccn2c(C)c(CCc3ccc4nc(N)oc4c3)nc2c1`, the melting point fell in the range of 244 to 246 °C.
For `CCOC(=O)c1cnn(-c2c(F)c(F)c(C(F)(F)F)c(F)c2F)c1N` the value was 166 to 168 °C; for `COc1cc(-c2n[nH]c(N)n2)c(OC)cc1C`, 248 °C; for `CC(CCc1nnn[nH]1)Cc1ccc(OCc2ccc3ccccc3n2)cc1` (stereo unspecified), 75 to 77 °C.
On to `CCOC(=O)c1nc2n(c(=O)c1O)CCOC2`, for which the melting point was 172 to 174 °C.
For `O=C(Nc1cccc(F)c1)NN1CC=CCC1`, the melting point is 136 to 138 °C.
In turn, `Cn1c(=O)c(-c2c(Cl)cccc2Cl)cc2cnc(NCc3cccnc3)nc21` came in with a melting point of 224 to 226 °C.
In turn, `N#CCCNC(=O)c1cccc(-c2ccc3ccn(-c4ccc(Cl)cc4Cl)c3n2)c1` had a melting point of 215 to 216 °C.
Consider `CCON=C(C(=O)OCC)C1=CSc2ccccc2S1`, for which the melting point was 78 to 81 °C.
`CN1CCN(c2ccccc2C(F)(F)F)C(C2=NCCN2)C1` (stereo unspecified) had a melting point of 163 to 165 °C.
Under `COc1ccc(CCOc2cccc(-c3cccc(N)c3)n2)cc1OC` stands 103 to 104 °C; under `CN1CCC(c2cccc(Cl)c2)(C(C)(C)O)CC1`, 149 to 150 °C; under `O=[N+]([O-])c1cc([N+](=O)[O-])c(Nc2nc(Cl)ccc2C(F)(F)F)c(C(F)(F)F)c1`, 129 to 131 °C.
For `COc1ccc(C[C@H]2C3=C(CCCC3)CCN2C(C)=O)cc1`, the melting point is 80 to 81.5 °C.
For `CCSc1nc2c(C(=O)OC)sc(C)c2[nH]1` the value was 159 to 160 °C; for `C=CCc1cc(F)ccc1OCCCN1CCC2(CC1)C(=O)NCN2c1ccccc1`, 110 to 113 °C; for `NC(=O)CCNc1ccc([N+](=O)[O-])cc1OCCO`, 184 °C.
For `COc1cc(N)c(Cl)cc1C(=O)NC1CCN(C(=O)OC(C)(C)C)CC1F` (stereo unspecified), the melting point was in the range of 198 to 199 °C.
Under `NC(=O)Nc1ccc2c(OCc3ccccc3-c3ccccc3)cccc2c1` stands 159 to 161 °C.
Under `CCc1nc2c(N)nc3cccnc3c2n1CC1(O)CCNCC1` stands 232 to 233 °C; under `Cc1cccc(OCC2=NCCN2C(=O)Nc2ccccc2)c1C`, 150 to 152 °C; under `Nn1cc(I)c(=O)[nH]c1=O`, 195 to 196 °C.
`NC(N)=NC(=O)c1ccc2c(c1)S(=O)(=O)CC2O` (stereo unspecified) gave a melting point of 240 to 241 °C.
Consider `Cc1ccc(C(=O)N2CCc3cc(S(=O)(=O)N4CC(c5ccccc5)NC4=O)ccc32)cc1` (stereo unspecified), for which the melting point turned out to be 125 °C.
Under `COc1ccc(COC(=O)C(=CNc2ncccc2OC(=S)N(C)C)C(=O)OCc2ccc(OC)cc2)cc1` stands 117 to 118 °C.
For `COC(=O)[C@H](Cc1ccccc1)NC(=O)CCC(=O)[C@H](Cc1ccccc1)NC(=O)c1ccccc1` the value was 106 to 109 °C; for `C=C(C)Cc1cc(C)c2c(c1O)C(=O)CC2`, 62.5 to 64 °C; for `O=c1ccn(-c2c(O)c3ccc(Cl)cc3[nH]c2=O)cc1`, 340 °C.
For `CCOC(=O)NN=C(c1ccc(Cl)cc1)c1ccc(NS(C)(=O)=O)cc1` the value was 198 to 200 °C; for `Cc1ccc(S(=O)(=O)Nc2cc(C)cc([N+](=O)[O-])c2N)cc1`, 184 °C.
On to `CN1C(=O)N(CC(COc2ccc(-c3ccc(OC(F)(F)F)cc3)cc2)N(O)C=O)C(=O)C1(C)C` (stereo unspecified), for which the melting point was in the range of 114 to 118 °C.
For `CC(C)(C)c1cc(C2CCC3SC2CCC3c2cc(C(C)(C)C)c(O)c(C(C)(C)C)c2)cc(C(C)(C)C)c1O` (stereo unspecified) the value was 247 to 250 °C.
`CC(C)(C)COc1c(-c2ccc(S(N)(=O)=O)cc2)cnn(CC(F)(F)F)c1=O` registered a melting point of 123 to 124 °C.
`CCC(C)(C)C(O)(C#Cc1cccnc1)c1cncnc1` (stereo unspecified): the melting point fell in the range of 170 to 172 °C.
Under `CCCc1cc2cc(O)c(F)cc2c(Oc2ccc(/C=C/C(N)=O)cc2)c1-c1ccccc1` stands 121 to 124 °C; under `Cc1cc(C#N)ccc1-c1cccc(-c2nc3cc(C#N)ccc3[nH]2)c1`, 247 to 250 °C.
For `CCS(=O)(=O)N1CCN(CCCCCCNc2cc(OC)cc3c(C)ccnc23)CC1` the value was 72 to 74 °C; for `Nc1nc(-c2ccccc2)c(-c2ccc(=O)[nH]n2)s1`, over 250 °C.
Under `O=C(CCCCCCn1ccc2ccc([N+](=O)[O-])cc21)NS(=O)(=O)c1ccccc1` stands 117 to 121 °C; under `CC(=O)c1sc(-c2ccc(C(F)(F)F)cc2)nc1C`, 89 to 90 °C; under `CCCCN1C(=O)NC(=Cc2ccc(C=O)cc2)C1=O`, 180 °C.
`CON=C(Cn1nnnc1S)C(=O)O` registered a melting point of 84 to 86 °C.
For `CCCCCCCCCCCCCCCCCCOc1cc(C(=O)OC)cc(N(CC(=O)O)CC(=O)O)c1` the value was 119 to 123 °C; for `O=C(O)CCC(=O)c1ccc(F)c(Br)c1`, 108 to 110 °C.
For `Cc1nc(-c2ccc3c(=O)n(CC(C)C)c(CNC(=O)OC(C)(C)C)c(-c4ccccc4)c3c2)sc1C(N)=O` the value was 227 to 228 °C; for `COC=C(C(=O)OC)N(C)c1nc(-c2ccc(Cl)c(Cl)c2)cs1`, 96 to 98 °C.
